In patent US20240368150A1 (Hoffmann-La Roche Inc., priority 2021, published 2024):
Like-named read-outs stand apart in the source and are kept apart here.

Legend:
primary human T-cells [1] = system: primary human T-cells
primary human T-cells [2] = assay: Proliferation assay after 5 days (CellTiter-Glo, CD3 stimulation; PBS counter screen); assay type: cell-based; settings: Homo sapiens, T-cell, 120 h, CD3 stimulation; for Emax: 5 days, normalized to reference compound A1 as stimulator control = 100%, DMSO neutral control, read-out: Emax proliferation (% activation); for EC50: primary human T-cells, CellTiter-Glo after 5 days, EC50 of fitted sigmoidal curve, read-out: Tcell Proliferation CD3 EC50
Outline: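 Luminescent ATP detection (CellTiter-Glo 2.0) quantified cell number 5 days after compounds went onto medium-only plates. Wells showing visible toxicity or precipitate were noted beforehand, and compounds that stimulated unstimulated cells or lowered viability were flagged.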

Row | SMILES | EC50 (primary human T-cells [1]) [nM] | Emax (primary human T-cells [2]) [%] | EC50 (primary human T-cells [2]) [nM]
1 | N[C@H]1CS(=O)(=O)c2cc(F)c(-c3noc(C(=O)NCC(F)(F)F)n3)cc2N(Cc2ccc(Cl)cc2)C1=O [Example 291, 3-[(3R)-3-amino-5-[(4-chlorophenyl)methyl]-8-fluoro-1,1,4-trioxo-2,3-dihydro-1λ^6,5-benzothiazepin-7-yl]-N-(2,2,2-trifluoroethyl)-1,2,4-oxadiazole-5-carboxamide] | 1700 | 104 | 446
2 | N[C@H]1CS(=O)(=O)c2cc(F)c(-c3noc(C(N)(C4CCOCC4)C(F)(F)F)n3)cc2N(Cc2ccc(Cl)cc2)C1=O (stereo partly drawn) [Example 294, (3R)-3-amino-7-[5-(1-amino-2,2,2-trifluoro-1-tetrahydropyran-4-yl-ethyl)-1,2,4-oxadiazol-3-yl]-5-[(4-chlorophenyl)methyl]-8-fluoro-1,1-dioxo-2,3-dihydro-1λ^6,5-benzothiazepin-4-one] | 374 | 143 | 261
3 | CC(F)(F)CNC(=O)c1nc(-c2cc3c(cc2F)S(=O)(=O)C[C@H](N)C(=O)N3Cc2ccc(Cl)cc2)no1 [Example 295, 3-[(3R)-3-amino-5-[(4-chlorophenyl)methyl]-8-fluoro-1,1,4-trioxo-2,3-dihydro-1λ^6,5-benzothiazepin-7-yl]-N-(2,2-difluoropropyl)-1,2,4-oxadiazole-5-carboxamide] | 885 | 97 | 1390
4 | N[C@H]1CS(=O)(=O)c2cc(F)c(-c3noc(C(F)C(F)(F)F)n3)cc2N(Cc2ccc(Cl)cc2)C1=O (stereo partly drawn) [Example 296, (3R)-3-amino-5-[(4-chlorophenyl)methyl]-8-fluoro-1,1-dioxo-7-[5-(1,2,2,2-tetrafluoroethyl)-1,2,4-oxadiazol-3-yl]-2,3-dihydro-1λ^6,5-benzothiazepin-4-one] | 710 | 66 | 687
5 | CN(C)C(=O)c1nc(-c2cc3c(cc2F)S(=O)(=O)C[C@H](N)C(=O)N3Cc2ccc(Cl)cc2)no1 [Example 299, 3-[(3R)-3-amino-5-[(4-chlorophenyl)methyl]-8-fluoro-1,1,4-trioxo-2,3-dihydro-1λ^6,5-benzothiazepin-7-yl]-N,N-dimethyl-1,2,4-oxadiazole-5-carboxamide] | 2500 | 111 | 5010
6 | CC(O)(CNC(=O)c1nc(-c2cc3c(cc2F)S(=O)(=O)C[C@H](N)C(=O)N3Cc2ccc(Cl)cc2)no1)C(F)(F)F (stereo partly drawn) [Example 301, 3-[(3R)-3-amino-5-[(4-chlorophenyl)methyl]-8-fluoro-1,1,4-trioxo-2,3-dihydro-1λ^6,5-benzothiazepin-7-yl]-N-(3,3,3-trifluoro-2-hydroxy-2-methyl-propyl)-1,2,4-oxadiazole-5-carboxamide] | 6140 | 93 | 2440
7 | CC1(C)CNCC(c2nc(-c3cc4c(cc3F)S(=O)(=O)C[C@H](N)C(=O)N4Cc3ccc(Cl)cc3)no2)C1 (stereo partly drawn) [Example 302, (3R)-3-amino-5-[(4-chlorophenyl)methyl]-7-[5-(5,5-dimethyl-3-piperidyl)-1,2,4-oxadiazol-3-yl]-8-fluoro-1,1-dioxo-2,3-dihydro-1λ^6,5-benzothiazepin-4-one] | > 10000 | 76 | 990
8 | CNC(=O)N1CCC(C)(c2nc(-c3cc4c(cc3F)S(=O)(=O)C[C@H](N)C(=O)N4Cc3ccc(Cl)cc3)no2)CC1 [Example 304, 4-[3-[(3R)-3-amino-5-[(4-chlorophenyl)methyl]-8-fluoro-1,1,4-trioxo-2,3-dihydro-1λ^6,5-benzothiazepin-7-yl]-1,2,4-oxadiazol-5-yl]-N,4-dimethyl-piperidine-1-carboxamide] | 8140 | 61 | 7490
9 | CC1(c2nc(-c3cc4c(cc3F)S(=O)(=O)C[C@H](N)C(=O)N4Cc3ccc(Cl)cc3)no2)CCN(C(=O)N2CCCC2)CC1 [Example 305, (3R)-3-amino-5-[(4-chlorophenyl)methyl]-8-fluoro-7-[5-[4-methyl-1-(pyrrolidine-1-carbonyl)-4-piperidyl]-1,2,4-oxadiazol-3-yl]-1,1-dioxo-2,3-dihydro-1λ^6,5-benzothiazepin-4-one] | 1810 | 84 | 720
10 | CCN1CCC(C)(c2nc(-c3cc4c(cc3F)S(=O)(=O)C[C@H](N)C(=O)N4Cc3ccc(Cl)cc3)no2)CC1 [Example 306, (3R)-3-amino-5-[(4-chlorophenyl)methyl]-7-[5-(1-ethyl-4-methyl-4-piperidyl)-1,2,4-oxadiazol-3-yl]-8-fluoro-1,1-dioxo-2,3-dihydro-1λ^6,5-benzothiazepin-4-one] | 571 | 79 | 3480
11 | CC1(c2nc(-c3cc4c(cc3F)[S+]([O-])C[C@H](N)C(=O)N4Cc3ccc(Cl)cc3)no2)CC[N+]([O-])(CC(F)(F)F)CC1 (stereo partly drawn) [Example 308, (3R)-3-amino-5-[(4-chlorophenyl)methyl]-8-fluoro-7-[5-[4-methyl-1-oxido-1-(2,2,2-trifluoroethyl)piperidin-1-ium-4-yl]-1,2,4-oxadiazol-3-yl]-1-oxo-2,3-dihydro-1λ^4,5-benzothiazepin-4-one] | > 10000 | 61 | 7630
12 | CC1(c2nc(-c3cc4c(cc3F)S(=O)(=O)C[C@H](N)C(=O)N4Cc3ccc(Cl)cc3)no2)CCN(CC(F)(F)F)CC1 [Example 309, (3R)-3-amino-5-[(4-chlorophenyl)methyl]-8-fluoro-7-[5-[4-methyl-1-(2,2,2-trifluoroethyl)-4-piperidyl]-1,2,4-oxadiazol-3-yl]-1,1-dioxo-2,3-dihydro-1λ^6,5-benzothiazepin-4-one] | 443 | 202 | 
13 | Cc1ccncc1-c1nc(-c2cc3c(cc2F)S(=O)(=O)C[C@H](N)C(=O)N3Cc2ccc(Cl)cc2)no1 [Example 310, (3R)-3-amino-5-[(4-chlorophenyl)methyl]-8-fluoro-7-[5-(4-methyl-3-pyridyl)-1,2,4-oxadiazol-3-yl]-1,1-dioxo-2,3-dihydro-1λ^6,5-benzothiazepin-4-one] | 3240 | 90 | 2710
14 | Cc1nc(F)ccc1-c1nc(-c2cc3c(cc2F)S(=O)(=O)C[C@H](N)C(=O)N3Cc2ccc(Cl)cc2)no1 [Example 312, (3R)-3-amino-5-[(4-chlorophenyl)methyl]-8-fluoro-7-[5-(6-fluoro-2-methyl-3-pyridyl)-1,2,4-oxadiazol-3-yl]-1,1-dioxo-2,3-dihydro-1λ^6,5-benzothiazepin-4-one] | 226 | 163 | 80.6
15 | CCOC(=O)N1CC2CC(c3nc(-c4cc5c(cc4F)S(=O)(=O)C[C@H](N)C(=O)N5Cc4ccc(Cl)cc4)no3)(C2)C1 [Example 315, ethyl 1-[3-[(3R)-3-amino-5-[(4-chlorophenyl)methyl]-8-fluoro-1,1,4-trioxo-2,3-dihydro-1λ^6,5-benzothiazepin-7-yl]-1,2,4-oxadiazol-5-yl]-3-azabicyclo[3.1.1]heptane-3-carboxylate] | 1030 | 131 | 
16 | CC(C)OC(=O)N1CC2CC(c3nc(-c4cc5c(cc4F)S(=O)(=O)C[C@H](N)C(=O)N5Cc4ccc(Cl)cc4)no3)(C2)C1 [Example 316, isopropyl 1-[3-[(3R)-3-amino-5-[(4-chlorophenyl)methyl]-8-fluoro-1,1,4-trioxo-2,3-dihydro-1λ^6,5-benzothiazepin-7-yl]-1,2,4-oxadiazol-5-yl]-3-azabicyclo[3.1.1]heptane-3-carboxylate] | 679 | 112 | 
17 | COC(=O)N1CC2CC(c3nc(-c4cc5c(cc4F)S(=O)(=O)C[C@H](N)C(=O)N5Cc4ccc(Cl)cc4)no3)(C2)C1 [Example 317, methyl 1-[3-[(3R)-3-amino-5-[(4-chlorophenyl)methyl]-8-fluoro-1,1,4-trioxo-2,3-dihydro-1λ^6,5-benzothiazepin-7-yl]-1,2,4-oxadiazol-5-yl]-3-azabicyclo[3.1.1]heptane-3-carboxylate] | 2230 | 142 | 
18 | N[C@H]1CS(=O)(=O)c2cc(F)c(-c3noc(C4(C(F)(F)F)CC4)n3)cc2N(Cc2ccc(Cl)cc2)C1=O [Example 318, (3R)-3-amino-5-[(4-chlorophenyl)methyl]-8-fluoro-1,1-dioxo-7-[5-[1-(trifluoromethyl)cyclopropyl]-1,2,4-oxadiazol-3-yl]-2,3-dihydro-1λ^6,5-benzothiazepin-4-one] | 550 | 140 | 255
19 | CC(O)(c1nc(-c2cc3c(cc2F)S(=O)(=O)C[C@H](N)C(=O)N3Cc2ccc(Cl)cc2)no1)C(F)(F)F (stereo partly drawn) [Example 319, (3R)-3-amino-5-[(4-chlorophenyl)methyl]-8-fluoro-1,1-dioxo-7-[5-(2,2,2-trifluoro-1-hydroxy-1-methyl-ethyl)-1,2,4-oxadiazol-3-yl]-2,3-dihydro-1λ^6,5-benzothiazepin-4-one] | 458 | 113 | 244
20 | N[C@H]1CS(=O)(=O)c2cc(F)c(-c3noc(C4(CO)CCCO4)n3)cc2N(Cc2ccc(Cl)cc2)C1=O (stereo partly drawn) [Example 320, (3R)-3-amino-5-[(4-chlorophenyl)methyl]-8-fluoro-7-[5-[2-(hydroxymethyl)tetrahydrofuran-2-yl]-1,2,4-oxadiazol-3-yl]-1,1-dioxo-2,3-dihydro-1λ^6,5-benzothiazepin-4-one] | 3210 | 107 | 3060
21 | CC(C)(C#N)c1nc(-c2cc3c(cc2F)S(=O)(=O)C[C@H](N)C(=O)N3Cc2ccc(Cl)cc2)no1 [Example 321, 2-[3-[(3R)-3-amino-5-[(4-chlorophenyl)methyl]-8-fluoro-1,1,4-trioxo-2,3-dihydro-1λ^6,5-benzothiazepin-7-yl]-1,2,4-oxadiazol-5-yl]-2-methyl-propanenitrile] | 597 | 130 | 250
